The text below walks through data of patent US10231954B2, “Neurodegenerative therapies” (LYTIX BIOPHARMA AS, priority 2014, dated 2019).

Assay type in all cases: biochemical
What all share (conditions): 100 micromolar inhibitor concentration, 100 is no change

In one assay the target is T1, IKKb (Homo sapiens, UniProt O14920).
T1 sequence (O14920 1-756): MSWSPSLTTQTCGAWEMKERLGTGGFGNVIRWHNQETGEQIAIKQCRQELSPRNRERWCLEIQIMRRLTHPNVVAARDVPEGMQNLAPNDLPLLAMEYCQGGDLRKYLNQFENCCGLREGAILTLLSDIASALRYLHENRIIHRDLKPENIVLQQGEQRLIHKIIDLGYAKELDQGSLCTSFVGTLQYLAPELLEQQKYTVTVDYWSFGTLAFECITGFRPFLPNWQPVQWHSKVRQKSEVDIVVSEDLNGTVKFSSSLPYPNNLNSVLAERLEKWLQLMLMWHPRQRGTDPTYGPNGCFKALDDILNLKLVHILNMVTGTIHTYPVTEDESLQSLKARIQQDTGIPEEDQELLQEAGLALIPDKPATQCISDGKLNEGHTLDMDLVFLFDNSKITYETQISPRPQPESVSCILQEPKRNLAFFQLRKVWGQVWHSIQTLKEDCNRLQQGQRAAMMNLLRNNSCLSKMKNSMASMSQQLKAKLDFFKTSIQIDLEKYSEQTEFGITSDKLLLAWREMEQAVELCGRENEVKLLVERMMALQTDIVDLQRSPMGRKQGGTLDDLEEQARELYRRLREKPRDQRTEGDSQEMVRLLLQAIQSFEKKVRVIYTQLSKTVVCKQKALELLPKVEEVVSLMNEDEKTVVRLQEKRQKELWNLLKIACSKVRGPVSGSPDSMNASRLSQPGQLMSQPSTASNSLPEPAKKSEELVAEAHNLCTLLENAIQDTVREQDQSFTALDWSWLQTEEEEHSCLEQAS
Description: Kinase profiling IKKb. The text has this:
(§1) Any value less that 25 is considered to be highly significant inhibition.

In a further assay the target is T2, NEK2a (Homo sapiens, UniProt P51955).
T2 sequence (P51955 1-445): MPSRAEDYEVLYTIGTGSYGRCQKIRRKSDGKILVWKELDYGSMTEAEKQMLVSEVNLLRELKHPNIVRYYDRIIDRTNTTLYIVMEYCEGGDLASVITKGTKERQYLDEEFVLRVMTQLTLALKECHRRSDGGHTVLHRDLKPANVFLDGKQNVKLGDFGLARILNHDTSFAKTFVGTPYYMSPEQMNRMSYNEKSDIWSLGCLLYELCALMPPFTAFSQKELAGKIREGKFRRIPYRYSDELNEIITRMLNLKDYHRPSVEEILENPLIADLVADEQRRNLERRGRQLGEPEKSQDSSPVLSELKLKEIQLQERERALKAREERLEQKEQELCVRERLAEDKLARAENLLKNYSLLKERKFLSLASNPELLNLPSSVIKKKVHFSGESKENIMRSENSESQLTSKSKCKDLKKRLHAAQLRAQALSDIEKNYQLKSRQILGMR
As to the kind of experiment: Kinase profiling NEK2a.
Source text: as §1

A further assay has as its target IR (Homo sapiens, UniProt P06213). Description: Kinase profiling IR.
Source text: as §1

The target of the next assay is T3, EPH-B4 (Homo sapiens, UniProt P54760).
T3 sequence (P54760 16-987): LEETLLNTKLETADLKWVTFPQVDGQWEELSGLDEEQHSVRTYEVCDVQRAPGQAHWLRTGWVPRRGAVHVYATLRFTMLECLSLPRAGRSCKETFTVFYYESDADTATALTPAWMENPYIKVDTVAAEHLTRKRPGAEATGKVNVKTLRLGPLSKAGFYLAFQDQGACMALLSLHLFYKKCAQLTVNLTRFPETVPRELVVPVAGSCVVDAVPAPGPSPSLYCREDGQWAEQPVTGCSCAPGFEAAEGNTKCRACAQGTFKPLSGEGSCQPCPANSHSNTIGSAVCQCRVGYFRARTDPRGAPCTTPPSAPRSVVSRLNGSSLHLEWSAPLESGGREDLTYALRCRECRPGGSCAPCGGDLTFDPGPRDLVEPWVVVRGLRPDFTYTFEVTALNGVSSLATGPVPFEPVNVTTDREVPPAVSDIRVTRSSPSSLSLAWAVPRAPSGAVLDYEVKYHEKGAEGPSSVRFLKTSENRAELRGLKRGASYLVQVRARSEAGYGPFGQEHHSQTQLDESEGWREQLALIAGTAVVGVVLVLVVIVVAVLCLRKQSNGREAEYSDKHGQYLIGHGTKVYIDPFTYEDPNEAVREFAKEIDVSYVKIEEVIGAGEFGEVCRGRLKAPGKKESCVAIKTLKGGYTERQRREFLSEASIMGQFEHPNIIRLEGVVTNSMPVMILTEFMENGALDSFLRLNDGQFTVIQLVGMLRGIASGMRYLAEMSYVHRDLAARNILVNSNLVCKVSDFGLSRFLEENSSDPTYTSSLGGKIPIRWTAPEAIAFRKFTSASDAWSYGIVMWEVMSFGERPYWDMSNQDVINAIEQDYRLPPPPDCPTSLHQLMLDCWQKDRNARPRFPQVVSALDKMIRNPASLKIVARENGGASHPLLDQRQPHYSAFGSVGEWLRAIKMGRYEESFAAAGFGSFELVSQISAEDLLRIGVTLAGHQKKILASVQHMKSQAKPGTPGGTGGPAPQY
As to the kind of experiment: Kinase profiling EPH-B4.
Source text: as §1

Another assay concerns the target T4, MARK4 (Homo sapiens, UniProt Q96L34).
T4 sequence (Q96L34 1-752): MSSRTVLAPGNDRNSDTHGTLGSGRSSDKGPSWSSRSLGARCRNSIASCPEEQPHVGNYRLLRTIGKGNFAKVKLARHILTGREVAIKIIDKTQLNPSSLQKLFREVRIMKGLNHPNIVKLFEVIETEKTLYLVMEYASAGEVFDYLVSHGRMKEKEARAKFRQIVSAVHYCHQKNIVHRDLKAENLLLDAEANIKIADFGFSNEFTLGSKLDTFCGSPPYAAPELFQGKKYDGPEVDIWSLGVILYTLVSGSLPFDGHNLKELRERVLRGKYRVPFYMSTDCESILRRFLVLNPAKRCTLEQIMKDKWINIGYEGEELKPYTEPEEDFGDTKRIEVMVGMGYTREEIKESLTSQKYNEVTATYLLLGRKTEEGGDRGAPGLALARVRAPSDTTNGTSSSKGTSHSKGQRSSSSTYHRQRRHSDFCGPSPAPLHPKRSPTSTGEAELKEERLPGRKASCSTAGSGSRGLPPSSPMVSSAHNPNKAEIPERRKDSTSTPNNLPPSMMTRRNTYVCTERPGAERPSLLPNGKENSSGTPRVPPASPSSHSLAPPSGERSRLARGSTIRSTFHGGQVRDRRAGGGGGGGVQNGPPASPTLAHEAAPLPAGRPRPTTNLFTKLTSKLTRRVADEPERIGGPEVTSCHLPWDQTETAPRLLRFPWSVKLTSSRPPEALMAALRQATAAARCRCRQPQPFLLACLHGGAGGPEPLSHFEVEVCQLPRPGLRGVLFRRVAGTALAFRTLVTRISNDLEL
Description: Kinase profiling MARK4.
Source text: as §1

Sequence of IR (P06213 28-1382): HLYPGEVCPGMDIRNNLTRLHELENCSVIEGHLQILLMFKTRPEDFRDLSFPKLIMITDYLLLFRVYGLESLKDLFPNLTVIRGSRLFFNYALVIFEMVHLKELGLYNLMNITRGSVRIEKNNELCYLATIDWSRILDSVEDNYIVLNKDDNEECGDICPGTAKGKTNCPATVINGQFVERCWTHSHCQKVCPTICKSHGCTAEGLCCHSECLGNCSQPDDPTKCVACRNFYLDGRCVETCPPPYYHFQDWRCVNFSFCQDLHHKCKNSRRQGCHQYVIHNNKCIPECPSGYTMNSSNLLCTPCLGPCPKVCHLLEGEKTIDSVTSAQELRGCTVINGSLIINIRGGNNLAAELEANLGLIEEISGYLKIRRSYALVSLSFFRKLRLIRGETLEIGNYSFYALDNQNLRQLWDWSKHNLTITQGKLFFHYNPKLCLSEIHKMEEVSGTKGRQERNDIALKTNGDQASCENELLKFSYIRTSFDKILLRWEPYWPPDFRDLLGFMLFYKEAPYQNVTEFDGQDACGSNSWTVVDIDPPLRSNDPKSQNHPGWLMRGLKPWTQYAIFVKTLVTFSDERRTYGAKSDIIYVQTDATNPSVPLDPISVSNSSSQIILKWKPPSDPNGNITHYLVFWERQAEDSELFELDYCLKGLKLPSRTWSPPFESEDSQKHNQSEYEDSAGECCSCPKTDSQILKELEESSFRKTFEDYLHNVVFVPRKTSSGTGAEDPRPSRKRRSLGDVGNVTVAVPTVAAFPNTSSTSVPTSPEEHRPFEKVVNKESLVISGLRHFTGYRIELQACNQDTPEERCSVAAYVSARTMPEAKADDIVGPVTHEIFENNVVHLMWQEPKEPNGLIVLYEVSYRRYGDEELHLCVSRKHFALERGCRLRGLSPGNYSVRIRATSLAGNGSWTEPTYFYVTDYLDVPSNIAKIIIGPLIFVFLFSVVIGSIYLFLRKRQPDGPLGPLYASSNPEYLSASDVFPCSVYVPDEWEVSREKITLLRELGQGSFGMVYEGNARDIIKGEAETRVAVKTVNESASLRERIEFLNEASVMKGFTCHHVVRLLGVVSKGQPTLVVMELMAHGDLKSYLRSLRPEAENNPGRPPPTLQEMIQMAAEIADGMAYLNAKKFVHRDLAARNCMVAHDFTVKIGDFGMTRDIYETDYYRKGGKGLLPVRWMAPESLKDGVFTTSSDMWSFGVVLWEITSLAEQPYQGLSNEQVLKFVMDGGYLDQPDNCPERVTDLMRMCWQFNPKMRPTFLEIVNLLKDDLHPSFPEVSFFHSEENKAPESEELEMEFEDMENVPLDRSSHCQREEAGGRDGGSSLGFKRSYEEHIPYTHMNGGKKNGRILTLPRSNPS

With `CC(=O)Nc1nc2cc(F)ccc2s1` [Compound 03-77], the remaining activity at 100 µM came to 61% on IKKb (read-out: residual kinase activity, IKKb); 90% at NEK2a (read-out: residual kinase activity, NEK2a); 87% at IR (read-out: residual kinase activity, IR); 112% at EPH-B4 (read-out: residual kinase activity, EPH-B4); 86% at MARK4 (read-out: residual kinase activity, MARK4).
`O=C(Nc1nc2ccc(O)cc2s1)c1ccncc1` [Compound 08-42]: at IKKb, the “residual kinase activity, IKKb” value was 82. The “residual kinase activity, NEK2a” value at NEK2a turned out to be 79. On IR, the “residual kinase activity, IR” value came to 51. The “residual kinase activity, EPH-B4” value at EPH-B4 came out at 92. Also, on MARK4, the “residual kinase activity, MARK4” value was found to be 82.
As for `O=C(Nc1nc2ccc(O)cc2s1)c1cccnc1` [Compound 08-44], the “residual kinase activity, IKKb” value at IKKb is 63. Besides, the “residual kinase activity, NEK2a” value at NEK2a amounted to 74. On IR, the “residual kinase activity, IR” value was 35. Moreover, the “residual kinase activity, EPH-B4” value at EPH-B4 is 100. Also, at MARK4, the “residual kinase activity, MARK4” value is 77.
